These results are taken from publication PMC9552003, “Chemosensory protein 4 is required for Bradysia odoriphaga to be olfactory attracted to sulfur compounds released from Chinese chives” (Frontiers in Physiology, 2022).

The target of one experiment is recombinant BodoCSP4 (Bradysia odoriphaga, UniProt A0A2S0X9L0). Kind of experiment: biochemical. Type of experiment: binding. As for the experimental part: An F-380 fluorescence spectrophotometer (Tianjin, China) was used to measure the binding affinity of BodoCSP4 to the selected volatiles, using 1-N-phenyl-naphthylamine (1-NPN) as the fluorescent probe. […] Both 1-NPN and the volatile compounds were diluted in chromatographic-grade methanol to make 1 mM stock solutions. Recombinant BodoCSP4 was dissolved in 20 mM Tris-HCl (pH 7.4) and diluted to a 2 µM stock solution.

Experiment [1] deals with B. odoriphaga male adults. More on the design: method as in Zhang et al. (2021). Conditions: ref Zhang et al. (2021); cited from earlier work.
The subject of experiment [2] is B. odoriphaga male adults. Kind of experiment: Y-tube olfactometer assay after dsRNA injection. Type of experiment: in vivo, Bradysia odoriphaga. Particulars: for effect of silencing of BodoCSP4 on behavioral response of male adults to the ligand: RNAi, Y-tube olfaction assays; for behavioral response (attraction to ligand vs hexane control): n = 60, chi-square test. The source says: The primer pairs dsCSP4 and dsGFP, containing the T7 promoter sequence, are listed in Table 1, and the T7 RiboMAX ™ Express RNAi System was used to synthesize double stranded RNAs (dsRNAs). The dsRNAs were microinjected into 3-day-old pupae of B. odoriphaga, and newly eclosed male adults were selected for dsRNA extraction and behavioral assays as previously described ([Yang et al., 2021b]; [Zhang et al., 2021]). According to the fluorescence binding results, after BodoCSP4 was silenced, a Y-tube olfactometer was used to assess the behavioral responses of B. odoriphaga male adults to the ligands diallyl disulfide, methyl allyl disulfide, and n-heptadecane as described in our previous report ([Yang et al., 2019]). In brief, a 10-μL solution of diallyl disulfide, methyl allyl disulfide, or n-heptadecane in hexane was placed on a strip (4 × 40 mm) of filter paper; after 10 s, the strip was placed at the end of one of the two Y-tube arms. As a control, a hexane-treated filter paper strip was placed at the end of the other arm. Two streams of clean air were passed through the Y-tube arms to the base, and one adult male that had been previously injected (at the pupal stage, 12 h before emergence) with dsBodoCSP4 or dsGFP was placed in the base of the Y-tube. If the male adult moved at least half way up one of the Y-tube arms, the result was recorded and considered an indication of attraction or repulsion depending on which arm was selected. Each of six treatment combinations (3 host plant volatiles with controls and dsBodoCSP4 or dsGFP microinjected adults) are represented by 60 replicate assays.
All RT-qPCR experiments were analyzed using one-way ANOVA followed by Tukey-HSD tests with SPSS 20.0 software. All RT-qPCR experiments were conducted using three independent biological replicates. In each of the six Y-tube olfactometer assays (3 ligands and controls without ligand × two types of microinjected B. odoriphaga adult males), behavioral responses to filter paper with or without ligand were analyzed by a chi-square test (χ 2).

For experiment [3], the system named is antennae of both male and female B. odoriphaga. Also on record: method as in Yang et al., 2019. Particulars: ref Yang et al., 2019; cited from earlier work.
Experiment [4] has as its system B. odoriphaga male adults. More on the design: method as in Li H. J. et al., 2007. Particulars: extract from the abdomen of B. odoriphaga females; ref Li H. J. et al., 2007; cited from earlier work.
[5] abbreviates: recombinant BodoCSP4, Supplemental Table 2, IC50, read-out: IC50.
[6] abbreviates: recombinant BodoCSP4, Supplemental Table 2, Ki, read-out: Ki.
Setting [7] is: Ki, recombinant BodoCSP4, Supplemental Table 2, Ki.
Setting [8] is: recombinant BodoCSP4, competitive with 1-NPN, values in text, read-out: binding affinity (Ki).

Values joined by “and” are separate entries in the source; they are usually repeats but may differ in a detail not shown here. Equal values may be shown once. Read-outs that look alike come from different tables or passages of the source.

What is called IC50 is the point on the concentration scale where inhibition reaches its midpoint. As usually defined, the Ki is a dissociation constant, usually derived from enzyme kinetics or from competition with a known ligand. A word on the Kd: it is the free concentration of one partner at which half of the binding sites on the other are occupied at equilibrium, for simple one-to-one binding.

Sequence of recombinant BodoCSP4 (A0A2S0X9L0 entry or part of it): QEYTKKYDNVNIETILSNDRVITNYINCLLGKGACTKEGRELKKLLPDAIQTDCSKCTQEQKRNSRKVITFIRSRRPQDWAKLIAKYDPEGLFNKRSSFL

Consider `CC(C)=CCCC(C)CCO` (centres unmarked) [Citronellol], for which the IC50 on recombinant BodoCSP4 (setting [5]) was above 50 µM. In addition, the Ki on recombinant BodoCSP4 (setting [6]) was above 50 µM.
As to `CCCCCCCCCCCCCC` [Tetradecane], the IC50 at recombinant BodoCSP4 (setting [5]) is above 50 µM. Moreover, the Ki on recombinant BodoCSP4 (setting [6]) was above 50 µM.
For `C/C1=C\CC/C(C)=C/CC(C)(C)/C=C/C1` [a-Humulene], the IC50 on recombinant BodoCSP4 (setting [5]) was above 50 µM. Moreover, the Ki at recombinant BodoCSP4 (setting [6]) was above 50 µM.
As to `CCCCCCCCCCCC=O` [Dodecyl aldehyde], the IC50 at recombinant BodoCSP4 (setting [5]) was above 50 µM. In addition, the Ki at recombinant BodoCSP4 (setting [6]) was above 50 µM.
For `CCCCCCCCCCCCCCCC` [Hexadecane], the IC50 on recombinant BodoCSP4 (setting [5]) is above 50 µM. In addition, at recombinant BodoCSP4 (setting [6]), the Ki is above 50 µM.
For the molecule `C=CC(C)(O)CCC=C(C)C` (centres unmarked) [Linalool], the IC50 at recombinant BodoCSP4 was above 50 µM. On recombinant BodoCSP4 (setting [7]), the Ki is above 50 µM.
As to `C=C(C)[C@H]1CC=C(C)CC1` [(R)-(+)-Limonene], the IC50 on recombinant BodoCSP4 (setting [5]) was above 50 µM. For the same molecule, the Ki on recombinant BodoCSP4 (setting [6]) was above 50 µM.
In the case of `COC(=O)Cc1ccccc1` [Methyl phenylacetate], on recombinant BodoCSP4, the IC50 is above 50 µM. In addition, at recombinant BodoCSP4 (setting [7]), the Ki was above 50 µM.
`CCCCCCCCC` [Nonane]: the IC50 at recombinant BodoCSP4 (setting [5]) is above 50 µM. Also, the inhibition constant (Ki) on recombinant BodoCSP4 (setting [6]) was above 50 µM.
As for `C=CCSSC` [Methyl allyl disulfide], the Ki on recombinant BodoCSP4 (setting [8]) was 5.71 µM and < 10 µM. Moreover, in experiment [1], the “effect of silencing of BodoCSP1 on behavioral response of male adults” value was “reduced the behavioral response”. Besides, the “effect of silencing of BodoCSP4 on behavioral response of male adults to the ligand” value (from here on “effect of silencing of BodoCSP4”) in experiment [2] was “did not decrease”. The “behavioral response (attraction to ligand vs hexane control)” value in experiment [2] (dsBodoCSP4-treated adult males) and in experiment [2] (dsGFP-treated adult males) was “attracted” in each case. In addition, the “electrophysiological responses from the antennae” value in experiment [3] is “strong electrophysiological responses”.
On to `CCCCC(C)=O` [2-Hexanone], for which the IC50 at recombinant BodoCSP4 is above 50 µM. Also, the Ki at recombinant BodoCSP4 (setting [7]) is above 50 µM.
`CCCCC=O` [Valeric aldehyde]: the IC50 at recombinant BodoCSP4 (setting [5]) was above 50 µM. Besides, at recombinant BodoCSP4 (setting [6]), the Ki was above 50 µM.
As to `CC(=O)c1ccccc1` [Acetophenone], the half-inhibitory concentration (IC50) on recombinant BodoCSP4 was above 50 µM. Besides, the inhibition constant Ki at recombinant BodoCSP4 (setting [6]) is above 50 µM.
Regarding `CCCCCCCCCCCC` [Dodecane], the IC50 at recombinant BodoCSP4 (setting [5]) is above 50 µM. Also, at recombinant BodoCSP4 (setting [6]), the Ki is above 50 µM.
`c1ccc2[nH]ccc2c1` [(H-11)indole]: the IC50 on recombinant BodoCSP4 (setting [5]) is above 50 µM. The Ki on recombinant BodoCSP4 (setting [6]) was above 50 µM.
With `C=CC(=O)OCCCC` [Butyl Acrylate], the IC50 on recombinant BodoCSP4 is above 50 µM. Also, the Ki on recombinant BodoCSP4 (setting [7]) is above 50 µM.
Consider `C=CCSSCC=C` [Diallyl disulfide], for which the Ki at recombinant BodoCSP4 (binding affinity (Ki), recombinant BodoCSP4, competitive with 1-NPN, values in text) is 5.71 µM and < 10 µM. Besides, in experiment [1], the “effect of silencing of BodoCSP1 on behavioral response of male adults” value is “reduced the behavioral response”. For the same molecule, the “effect of silencing of BodoCSP4” value in experiment [2] is “significantly decreased”. Also, the “behavioral response (attraction to ligand vs hexane control)” value in experiment [2] (dsBodoCSP4-treated adult males) is given as “no olfactory attraction”; in experiment [2] (dsGFP-treated adult males), “attracted”. Besides, the “electrophysiological responses from the antennae” value in experiment [3] was “strong electrophysiological responses”.
On to `c1ccc(Nc2cccc3ccccc23)cc1` [1-NPN, N-phenyl-1-naphthylamine, reference compound], for which, at recombinant BodoCSP4, the Kd was 1.08 µM.
Consider `CCCCCCCCCCCCCCCCC` [n-Heptadecane], for which, on recombinant BodoCSP4 (setting [8]), the Ki was 6.85 µM and < 10 µM. In addition, the “effect of silencing of BodoCSP4” value in experiment [2] is reported as “significantly decreased”. In addition, the results for the “behavioral response (attraction to ligand vs hexane control)” value in experiment [2] (dsBodoCSP4-treated adult males) and in experiment [2] (dsGFP-treated adult males) were “no olfactory attraction” and “attracted”, respectively. Further, the “behavioral response in male adults” value in experiment [4] is listed as “elicits a behavioral response”.
As to `CC/C=C\CCO` [cis-3-Hexen-1-ol], the IC50 at recombinant BodoCSP4 was above 50 µM. Also, on recombinant BodoCSP4 (setting [7]), the Ki is above 50 µM.
On to `CCCCCCC=O` [heptanal], for which the IC50 at recombinant BodoCSP4 was above 50 µM. The Ki on recombinant BodoCSP4 (setting [6]) is above 50 µM.
For `CCCCCCCC=O` [Octanal], the IC50 on recombinant BodoCSP4 (setting [5]) is above 50 µM. On recombinant BodoCSP4 (setting [6]), the Ki was above 50 µM.
Regarding `CC(=O)/C=C/C1=C(C)CCCC1(C)C` [Beta-Ionone], on recombinant BodoCSP4, the IC50 is above 50 µM. Moreover, the Ki on recombinant BodoCSP4 (setting [7]) was above 50 µM.
For the molecule `Cc1ccc(C(C)C)cc1O` [Carvaceol], the IC50 on recombinant BodoCSP4 (setting [5]) was above 50 µM. For the same molecule, on recombinant BodoCSP4 (setting [6]), the Ki was above 50 µM.
For the molecule `CC12CCC(CC1)C(C)(C)O2` [1,8-Cineole], at recombinant BodoCSP4, the IC50 was above 50 µM. For the same molecule, the Ki at recombinant BodoCSP4 (setting [6]) was above 50 µM.
`C=C1CCC2CC1C2(C)C` (centres unmarked) [ß-pinene]: the IC50 at recombinant BodoCSP4 (setting [5]) is above 50 µM. The Ki at recombinant BodoCSP4 (setting [6]) was above 50 µM.
With `C=CC(C)=CCC=C(C)C` [Ocimene], the concentration for half-maximal inhibition (IC50) at recombinant BodoCSP4 (setting [5]) was above 50 µM. Also, at recombinant BodoCSP4 (setting [6]), the Ki was above 50 µM.
Regarding `CCCCCCCCCC=O` [Decanal], on recombinant BodoCSP4 (setting [5]), the IC50 is above 50 µM. Besides, at recombinant BodoCSP4 (setting [6]), the Ki is above 50 µM.
For the molecule `CCCCCCCCC=O` [nonanal], at recombinant BodoCSP4 (setting [5]), the IC50 is above 50 µM. Moreover, on recombinant BodoCSP4 (setting [6]), the Ki is above 50 µM.
Take `C=C1CC/C=C(/C)CC[C@@H]2[C@@H]1CC2(C)C` [ß-caryophyllene]: the IC50 on recombinant BodoCSP4 (setting [5]) is above 50 µM. Further, the Ki on recombinant BodoCSP4 (setting [6]) is above 50 µM.
On to `CCCCOC(=O)CCC(C)=O` [Butyl levulinate], for which the IC50 at recombinant BodoCSP4 (setting [5]) is above 50 µM. At recombinant BodoCSP4 (setting [6]), the Ki was above 50 µM.
On to `O=Cc1ccccc1` [benzaldehyde], for which the IC50 at recombinant BodoCSP4 is above 50 µM. Further, the Ki on recombinant BodoCSP4 (setting [7]) is above 50 µM.
